Literature values in patent US20140343147A1, “NUTRITIONAL SUPPLEMENT FOR THE ENHANCEMENT OF MUSCLE PERFORMANCE AND RECOVERY AND METHODS OF USE THEREOF” (Maximum Human Performance, LLC, priority 2011, published 2014).

Key:
[1] = tested on: humans; conditions: daily dose
[2] = tested on: rats; conditions: daily dose
[3] = tested on: mice; conditions: iv. in mice, Na-salt
[4] = colorless crystals; water and alcohol

Compound | luteinizing hormone levels [1] | testosterone levels [1] | luteinizing hormone levels [2] | testosterone levels [2] | LD50 [3] [mg/kg] | solubility [4]
N[C@H](CC(=O)O)C(=O)O [D-aspartic acid] | increase | increase | increase | increase |  | 
CC(C)CC(O)C(=O)O (stereo not drawn) [HICA, 2-hydroxy-4-methylvaleric acid] |  |  |  |  | 650 | soluble in water and alcohol
